Tested on: TC-1 tumor model
Assay: PSC7A nanovaccine tumor therapy, TC-1 tumor model
Type: in vivo, C57BL/6 mice
Details: TC-1 model, s.c. at tail base, three injections, versus PBS control
Source text: The nanovaccine was made by physically mixing tumor specific antigenic peptides and PSC7A nanoparticles. Non-degradable PC7A based nanovaccines were used for comparison. […] Tumor growth was subsequently measured using a digital caliper and calculated as 0.5×length×width^2. Mice were sacrificed when the tumor volumes reached 2000 mm^3.
PSC7A nanoparticles were first produced and then mixed with tumor-specific antigenic peptides. Human papilloma virus (HPV) E6/E7-transfected TC-1 and murine B16-F10 melanoma tumor models were used. […] In the TC-1 model, E7 peptide antigen (E7p, […] (SEQ. No. 1)) was used. […] Most of the animals were lost within 30 days after tumor inoculation.

GQAEPDRAHYNIVTFCCKCD [E7p]
tumor growth inhibition: marginal tumor growth inhibition

— patent US12365761B2, “Biodegradable ultra-pH sensitive polymers” (priority 2019, dated 2025)
